Entries after “also recorded” stand apart in the source; their conditions may differ.
system: bacteria, fungi, and/or yeasts; format: binding; settings: microorganism(s) listed as target(s) of the targeting peptide; wrapped target lists given cell by cell

| Substance | Target(s) |
| --- | --- |
| 1T-268 (PITPKKEKCGLGTYAPKNPVFSKSRV) | F. nucleatum, S. mutans, S. oralis,; also recorded: S. sanguinis |
| 1T-269 (PLYVAAVEKINTAKKH) | F. nucleatum, S. mutans, S. oralis,; also recorded: S. sanguinis |
| 1T-270 (VHEFDIQKILQNR) | F. nucleatum, S. mutans, S. oralis,; also recorded: S. sanguinis |
| 1T-271 (FLIQKFLLIKTFPPYRKKYVVIVSQTGTA) | A. naeslundii, F. nucleatum, P. gingivalis,; also recorded: S. epidermidis, S. gordonii,; also recorded: S. mitis, S. mutans, S. oralis,; also recorded: S. salivarious, S. sanguinis |
| 1T-272 (QLAPIDKQLKAVKKIAFYESESTAAKAVTVA) | F. nucleatum, S. mutans, S. oralis,; also recorded: S. sanguinis |
| 1T-273 (YNEPNYKWLESYKIYKQRCEDRTGMYYTEET) | F. nucleatum, P. gingivalis, T. denticola,; also recorded: S. mitis, S. mutans, S. oralis |
| 1T-274 (ETTTEINAIKLHRIKQRSPQGTRRVN) | F. nucleatum, S. mutans, S. oralis,; also recorded: S. sanguinis |
| 1T-275 (QVLKNFSISRRYKINNPFFKILLFIQLRTL) | A. naeslundii, F. nucleatum, P. gingivalis,; also recorded: T. denticola, S. epidermidis,; also recorded: S. gordonii, S. mitis,; also recorded: S. mutans, S. oralis, S. salivarious,; also recorded: S. sanguinis |
| 1T-276 (ILTLLILGSIGFFILKIKLKLGRF) | A. naeslundii, F. nucleatum, P. gingivalis,; also recorded: S. epidermidis, S. gordonii,; also recorded: gordonii, S. mitis, S. mutans, S. oralis,; also recorded: S. sanguinis |
| 1T-277 (IYYMRFVNKPLEKTFFKI) | A. naeslundii, F. nucleatum, P. gingivalis,; also recorded: T. denticola, S. gordonii,; also recorded: S. mitis, S. mutans, S. oralis,; also recorded: S. salivarious, S. sanguinis |
| 1T-278 (SINSSAGIQPHCLSSSFVLRTKHCFY) | A. naeslundii, F. nucleatum, P. gingivalis,; also recorded: S. gordonii, S. mitis,; also recorded: S. mutans, S. oralis, S. salivarious,; also recorded: S. sanguinis |
| 1T-279 (FVLRTKHCFY) | A. naeslundii, F. nucleatum, P. gingivalis,; also recorded: S. gordonii, S. mitis,; also recorded: S. mutans, S. oralis, S. salivarious,; also recorded: S. sanguinis |
| 1T-280 (TNNKNKVIIKAIKFKNKDFINLDLFIYRR) | A. naeslundii, F. nucleatum, P. gingivalis,; also recorded: T. denticola, S. gordonii,; also recorded: S. mitis, S. mutans, S. oralis,; also recorded: S. salivarious, S. sanguinis |
| 1T-281 (KYEKLTKENLFIRNSGNMCVFIYFLFFG) | A. naeslundii, F. nucleatum, P. gingivalis,; also recorded: S. epidermidis, S. gordonii,; also recorded: S. mitis, S. mutans, S. oralis,; also recorded: S. salivarious, S. sanguinis |
| 1T-282 (ISLVFPAYT) | F. nucleatum, P. gingivalis, S. gordonii,; also recorded: S. mitis, S. mutans, S. oralis,; also recorded: S. salivarious, S. sanguinis |
| 1T-283 (LCTKLEDKQRGRIPAELFIISPIKILERNDAL) | A. naeslundii, F. nucleatum, P. gingivalis,; also recorded: T. denticola, S. epidermidis,; also recorded: S. gordonii, S. mitis,; also recorded: S. mutans, S. oralis, S. salivarious,; also recorded: S. sanguinis |
| 1T-284 (FQYYFSLKRV) | A. naeslundii, F. nucleatum, P. gingivalis,; also recorded: S. gordonii, S. mitis,; also recorded: S. mutans, S. oralis, S. salivarious,; also recorded: S. sanguinis |
| 1T-285 (FFPYYLADFYKQLKFLNEYQTKNKDKVVEFK) | A. naeslundii, F. nucleatum, P. gingivalis,; also recorded: S. gordonii, S. mitis,; also recorded: S. mutans, S. oralis, S. salivarious,; also recorded: S. sanguinis |
| 1T-286 (LGFFNNKADLVKADTERDNRMSSLKIKDL) | S. sanguinis |
| 1T-287 (KGYPLPFQYRLNNH) | P. gingivalis, T. denticola, S. gordonii,; also recorded: S. mitis, S. mutans, S. oralis,; also recorded: S. salivarious, S. sanguinis |
| 1T-288 (RWVGGEPSADIYLSAKDTKT) | F. nucleatum, S. gordonii, S. salivarious,; also recorded: S. sanguinis |

| Substance | Target(s) |
| --- | --- |
| 1T-289 (EPSADIYLSAKDTKT) | F. nucleatum, P. gingivalis, S. gordonii,; also recorded: S. mitis, S. mutans, S. oralis,; also recorded: S. sanguinis |
| 1T-290 (IINQLNLILLRLMEILIL) | A. naeslundii, F. nucleatum, P. gingivalis,; also recorded: S. gordonii, S. mitis,; also recorded: S. mutans, S. oralis, S. salivarious,; also recorded: S. sanguinis |
| 1T-291 (DMKIIKLYIKILSFLFIKYCNKKLNSVKLKA) | A. naeslundii, F. nucleatum, P. gingivalis,; also recorded: T. denticola, S. mitis,; also recorded: S. mutans, S. oralis |
| 1T-292 (IINQLNLILLRLMEILIL) | A. naeslundii, F. nucleatum, P. gingivalis,; also recorded: S. epidermidis, S. gordonii,; also recorded: S. mitis, S. mutans, S. oralis,; also recorded: S. salivarious, S. sanguinis |
| 1T-293 (HVEDCFLLSNARTTAIHGRANPARGEPRTRSE) | A. naeslundii, F. nucleatum, P. gingivalis,; also recorded: S. epidermidis, S. gordonii,; also recorded: S. mitis, S. mutans, S. oralis,; also recorded: S. salivarious, S. sanguinis |
| 1T-294 (YDKIADGVFKIGKRGVL) | T. denticola |
| 1T-295 (KYKLKKIIL) | S. mitis, S. salivarious, S. sanguinis |
| 1T-296 (EYSQQSFKAKPCSERGVLSP) | A. naeslundii, F. nucleatum, P. gingivalis,; also recorded: S. gordonii, S. mitis,; also recorded: S. mutans, S. oralis, S. salivarious,; also recorded: S. sanguinis |
| 1T-297 (RSLRLNNALTKLPKLWYNRIKEAFYAYNDYDK) | A. naeslundii, F. nucleatum, T. denticola,; also recorded: S. mitis, S. mutans, S. oralis |
| 1T-298 (ILNKKPKLPLWKLGKNYFRRFYVLPTFLA) | A. naeslundii, F. nucleatum, P. gingivalis,; also recorded: T. denticola, S. gordonii,; also recorded: S. mitis, S. mutans, S. oralis,; also recorded: S. salivarious, S. sanguinis |
| 1T-299 (SMLTSFLRSKNTRSLKMYKDVHF) | A. naeslundii, F. nucleatum, S. epidermidis,; also recorded: S. gordonii, S. mitis,; also recorded: S. mutans, S. oralis, S. salivarious,; also recorded: S. sanguinis |
| 1T-300 (PLIISKAQIKMSGDILGSCFKLFYLRPFF) | S. salivarious, S. sanguinis; also recorded: A. naeslundii, F. nucleatum, P. gingivalis,; also recorded: S. epidermidis, S. gordonii,; also recorded: S. mitis, S. mutans, S. oralis, |
| 1T-301 (SKLPRVLDASLKL) | F. nucleatum, S. gordonii, S. sanguinis |
| 1T-302 (IIIILPKIYLVCKTV) | A. naeslundii, P. gingivalis, S. epidermidis,; also recorded: S. gordonii, S. mitis,; also recorded: S. mutans, S. oralis, S. salivarious,; also recorded: S. sanguinis |
| 1T-303 (LDYENMDCKKRIRI) | A. naeslundii, F. nucleatum, P. gingivalis,; also recorded: S. gordonii, S. mitis,; also recorded: S. mutans, S. oralis, S. salivarious,; also recorded: S. sanguinis |
| 1T-304 (STAGEASRRTASEASRRTAAKLRG) | P. gingivalis |
| PF-001 (MNNWIIVAQLSVTVINEIIDIMKEKQKGGK) | S. epidermidis, M. luteus, P. mirabilis,; also recorded: E. coli, P. aeruginosa,; also recorded: C. albicans, MRSA, E. faecalis,; also recorded: C. jeikeium |
| PF-002 (NDDAQ) | yeast and hyphal forms; also recorded: S. epidermidis, P. mirabilis, C. albicans,; also recorded: C. jeikeium, C. jejuni |
| PF-003 (MNNWIKVAQISVTVINEVIDIMKEKQNGGK) | S. epidermidis, M. luteus, P. mirabilis,; also recorded: C. albicans, MRSA, C. jeikeium |
| PF-004 (ARLSKAIIIAVIVVYHLDVRGLF) | S. epidermidis, B. subtilis, B. fragilis,; also recorded: E. coli, P. aeruginosa, C. albicans,; also recorded: S. pneumoniae, E. faecalis,; also recorded: C. jeikeium |
| PF-005 (MESIFKIKLMNGICRSENMNMKKKNKGEKI) | S. epidermidis, E. coli, MRSA, S. pneumoniae,; also recorded: E. faecalis |

| Substance | Target(s) |
| --- | --- |
| PF-007 (MGIIAGIIKVIKSLIEQFTGK) | S. epidermidis, M. luteus, E. coli,; also recorded: P. aeruginosa, C. albicans,; also recorded: MRSA, S. pneumoniae, E. faecalis,; also recorded: C. jeikeium |
| PF-008 (MIEIGSIAYLNGGSKKYNHILNQENR) | S. epidermidis, M. luteus, MRSA,; also recorded: C. jejuni |
| PF-009 (SKKYNHILNQENR) | yeast and hyphal forms; also recorded: M. luteus, P. mirabilis, C. albicans |
| PF-010 (MDIDVNKLLQAFVYFKSFEKLRHNNS) | S. epidermidis, M. luteus, E. coli,; also recorded: C. albicans |
| PF-011 (MFCYYKQHKGDNFSIEEVKNIIADNEMKVN) | M. luteus, E. coli, P. aeruginosa,; also recorded: S. pneumoniae, C. jeikeium |
| PF-012 (WRGPNTEAGGKSANNIVQVGGAPT) | S. epidermidis, M. luteus, P. mirabilis,; also recorded: E. coli, P. aeruginosa,; also recorded: MRSA, S. pneumoniae, C. jeikeium,; also recorded: C. jejuni |
| PF-013 (LIQKGLNQTFIVVIRLNNFIKKS) | M. luteus, P. mirabilis, E. coli, P. aeruginosa,; also recorded: MRSA, S. pneumoniae,; also recorded: C. jeikeium, C. jejuni |
| PF-014 (HPTDNKHN) | E. coli, C. jeikeium |
| PF-015 (SIDKRNLYNLKYYE) | E. faecalis, C. jeikeium |
| PF-016 (RKQYDDLSFNFLY) | S. epidermidis, E. faecalis, C. jeikeium |
| PF-017 (ESIIE) | E. coli |
| PF-018 (YYKTYFKEV) | E. coli, C. jeikeium |
| PF-020 (MKIILLLFLIFGFIVVVTLKSEHQLTLFSI) | S. epidermidis, M. luteus, C. albicans,; also recorded: MRSA, S. pneumoniae,; also recorded: E. faecalis |
| PF-021 (FSLNFSKQKYVTVN) | yeast and hyphal forms; also recorded: S. epidermidis, M. luteus, P. mirabilis,; also recorded: E. coli, C. albicans, E. faecalis,; also recorded: C. jeikeium |
| PF-022 (MINELKNKNSGIMNNYVVTKESKL) | M. luteus, P. mirabilis, E. coli, P. aeruginosa,; also recorded: C. albicans, MRSA,; also recorded: S. pneumoniae, E. faecalis, C. jeikeium,; also recorded: C. jejuni |
| PF-023 (MTKNTIISLENEKTQINDSENESSDLRKAK) | M. luteus, C. jeikeium |
| PF-024 (DLRKAK) | C. albicans hyphae; also recorded: M. luteus, C. albicans, MRSA, E. faecalis,; also recorded: C. jeikeium |
| PF-025 (LLIIFRLWLELKWKNKK) | S. epidermidis, M. luteus, P. mirabilis,; also recorded: E. coli, P. aeruginosa,; also recorded: MRSA, E. faecalis, C. jejuni |
| PF-026 (SIHFIN) | S. epidermidis, M. luteus, P. mirabilis,; also recorded: C. albicans, MRSA, E. faecalis,; also recorded: C. jeikeium |
| PF-027 (HNARKYLEFISQKIDGDKLTKEDSL) | M. luteus, MRSA, E. faecalis, C. jejuni |

From patent publication US20120003661A1, “METHODS AND DEVICES FOR THE SELECTIVE DETECTION OF MICROORGANISMS” (C3 JIAN, INC., priority 2010, published 2012)
